Experimental data from ChEMBL document CHEMBL3132754 (Medchemcomm, 2013).

How the values were obtained:
Plasma = test: (§1) Stability in human plasma assessed as compound remaining at 5 uM after 1 hr by LC/MS/MS method; type: ADME, cell-free; conditions: 1 h, 5 µM
MV4-11 = test: […] histone methylation in human MV4-11 cells assessed as H3K79 methylation after 4 days by Western blot analysis; type: functional, cell-based; conditions: MV4-11, 96 h
[1] = Metabolic stability in human liver microsomes assessed as compound remaining at 200 uM measured after 1 hr by LC/MS/MS method; type: ADME; conditions: read-out: Stability
[2] = as §1; type: ADME, cell-free; conditions: read-out: Stability

| SMILES | Stability (Plasma) | IC50 (MV4-11) | remaining at 1 h, 200 µM [1] | remaining at 1 h, 5 µM [2] |
| --- | --- | --- | --- | --- |
| CC(C)N(CCCNC(=O)Nc1ccc(C(C)(C)C)cc1)CC1=C[C@@H](n2cnc3c(N)ncnc32)[C@H](O)[C@@H]1O | Stable | 200 nM | 50% |  |
| CC(C)N(CCCNC(=O)Nc1ccc(C(C)(C)C)cc1)C[C@H]1O[C@@H](n2cnc3c(N)ncnc32)[C@H](O)[C@@H]1O |  |  | 50% | 90% |
| CC(C)N(CCCNC(=O)Nc1ccc(C(C)(C)C)cc1)C[C@H]1C[C@@H](n2cnc3c(N)ncnc32)[C@H](O)[C@@H]1O | Stable |  |  |  |
